# From PubChem BioAssay (NCI)
#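 Compound exposure: 48 hours, 5 concentrations, 96-well plates. The concentration for full growth arrest is given as TGI.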
# Experiments:
# Assay in all cases: NCI tumour cell line growth inhibition, 48 h
# [1] = test system: 786-0 renal
# [2] = test system: A498 renal
# [3] = test system: A549 NSCLC
# [4] = test system: ACHN renal
# [5] = test system: CAKI-1 renal
# [6] = test system: CCRF-CEM leukemia
# [7] = test system: COLO 205 colon
# [8] = test system: DLD-1 colon
# [9] = test system: DMS 114 small cell lung
# [10] = test system: DMS 273 small cell lung
# [11] = test system: EKVX NSCLC
# [12] = test system: HCC-2998 colon
# [13] = test system: HCT-116 colon
# [14] = test system: HCT-15 colon
# [15] = test system: HL-60(TB) leukemia
# [16] = test system: HOP-18 NSCLC
# [17] = test system: HOP-62 NSCLC
# [18] = test system: HOP-92 NSCLC
# [19] = test system: HT29 colon
# [20] = test system: IGROV1 ovarian
# [21] = test system: K-562 leukemia
# [22] = test system: KM12 colon
# [23] = test system: KM20L2 colon
# [24] = test system: LXFL 529 NSCLC
# [25] = test system: M14 melanoma
# [26] = test system: M19-MEL melanoma
# [27] = test system: MALME-3M melanoma
# [28] = test system: MOLT-4 leukemia
# [29] = test system: NCI-H23 lung
# [30] = test system: NCI-H460 lung
# [31] = test system: NCI-H522 lung
# [32] = test system: OVCAR-3 ovarian
# [33] = test system: OVCAR-4 ovarian
# [34] = test system: OVCAR-5 ovarian
# [35] = test system: OVCAR-8 ovarian
# [36] = test system: RXF 393 renal
# [37] = test system: SF-268 CNS
# [38] = test system: SF-295 CNS
# [39] = test system: SF-539 CNS
# [40] = test system: SK-MEL-2 melanoma
# [41] = test system: SK-MEL-28 melanoma
# [42] = test system: SK-MEL-5 melanoma
# [43] = test system: SN12C renal
# [44] = test system: SNB-19 CNS
# [45] = test system: SNB-75 CNS
# [46] = test system: SNB-78 CNS
# [47] = test system: SR leukemia
# [48] = test system: SW-620 colon
# [49] = test system: TK-10 renal
# [50] = test system: U251 CNS
# [51] = test system: UACC-257 melanoma
# [52] = test system: UACC-62 melanoma
# [53] = test system: UO-31 renal
# [54] = test system: BT-549 breast
# [55] = test system: DU-145 prostate
# [56] = test system: HS 578T breast
# [57] = test system: LOX IMVI melanoma
# [58] = test system: MCF7 breast
# [59] = test system: MDA-MB-231 breast
# [60] = test system: MDA-MB-435
# [61] = test system: MDA-N
# [62] = test system: NCI-H226 lung
# [63] = test system: NCI/ADR-RES ovarian
# [64] = test system: PC-3 prostate
# [65] = test system: RPMI-8226 leukemia
# [66] = test system: SK-OV-3 ovarian
# [67] = test system: T-47D breast
smiles,measurement,setting,value
Cc1ccccc1NC(=O)C1C(=O)N(c2ccccc2C)C(=O)/C1=N\NC(N)=O (stereo not given),TGI,[1],> 100 µM
same,TGI,[2],> 100 µM
same,TGI,[3],> 100 µM
same,TGI,[4],> 100 µM
same,TGI,[5],> 100 µM
same,TGI,[6],> 100 µM
same,TGI,[7],> 100 µM
same,TGI,[8],> 100 µM
same,TGI,[9],> 100 µM
same,TGI,[10],> 100 µM
same,TGI,[11],> 100 µM
same,TGI,[12],> 100 µM
same,TGI,[13],> 100 µM
same,TGI,[14],> 100 µM
same,TGI,[15],> 100 µM
same,TGI,[16],> 100 µM
same,TGI,[17],> 100 µM
same,TGI,[18],> 100 µM
same,TGI,[19],> 100 µM
same,TGI,[20],> 100 µM
same,TGI,[21],> 100 µM
same,TGI,[22],> 100 µM
same,TGI,[23],> 100 µM
same,TGI,[24],> 100 µM
same,TGI,[25],> 100 µM
same,TGI,[26],> 100 µM
same,TGI,[27],> 100 µM
same,TGI,[28],> 100 µM
same,TGI,[29],> 100 µM
same,TGI,[30],> 100 µM
same,TGI,[31],> 100 µM
same,TGI,[32],> 100 µM
same,TGI,[33],> 100 µM
same,TGI,[34],> 100 µM
same,TGI,[35],> 100 µM
same,TGI,[36],> 100 µM
same,TGI,[37],> 100 µM
same,TGI,[38],> 100 µM
same,TGI,[39],> 100 µM
same,TGI,[40],> 100 µM
same,TGI,[41],> 100 µM
same,TGI,[42],> 100 µM
same,TGI,[43],> 100 µM
same,TGI,[44],> 100 µM
same,TGI,[45],83.7 µM
same,TGI,[46],> 100 µM
same,TGI,[47],> 100 µM
same,TGI,[48],> 100 µM
same,TGI,[49],> 100 µM
same,TGI,[50],> 100 µM
same,TGI,[51],> 100 µM
same,TGI,[52],> 100 µM
same,TGI,[53],> 100 µM
O=C1C(Cl)=CC2(C=C1Cl)CCN=c1c(O)c3c(c(O)c12)=NC=N3,TGI,[1],> 100 µM
same,TGI,[2],> 100 µM
same,TGI,[3],> 100 µM
same,TGI,[4],> 100 µM
same,TGI,[54],75.2 µM
same,TGI,[5],> 100 µM
same,TGI,[6],> 100 µM
same,TGI,[7],46.7 µM
same,TGI,[55],> 100 µM
same,TGI,[11],> 100 µM
same,TGI,[12],> 100 µM
same,TGI,[13],67.5 µM
same,TGI,[14],> 100 µM
same,TGI,[15],53.6 µM
same,TGI,[17],> 100 µM
same,TGI,[18],> 100 µM
same,TGI,[56],> 100 µM
same,TGI,[19],71.8 µM
same,TGI,[20],> 100 µM
same,TGI,[21],> 100 µM
same,TGI,[22],> 100 µM
same,TGI,[57],50.4 µM
same,TGI,[25],> 100 µM
same,TGI,[27],43.4 µM
same,TGI,[58],48.9 µM
same,TGI,[59],> 100 µM
same,TGI,[60],32.7 µM
same,TGI,[61],33.6 µM
same,TGI,[28],> 100 µM
same,TGI,[62],> 100 µM
same,TGI,[29],82.5 µM
same,TGI,[30],> 100 µM
same,TGI,[31],51.8 µM
same,TGI,[63],> 100 µM
same,TGI,[32],89.1 µM
same,TGI,[33],> 100 µM
same,TGI,[34],> 100 µM
same,TGI,[35],> 100 µM
same,TGI,[64],> 100 µM
same,TGI,[65],80.9 µM
same,TGI,[36],70.7 µM
same,TGI,[37],> 100 µM
same,TGI,[38],> 100 µM
same,TGI,[39],88.4 µM
same,TGI,[40],63.1 µM
same,TGI,[41],> 100 µM
same,TGI,[42],30.8 µM
same,TGI,[66],> 100 µM
same,TGI,[43],> 100 µM
same,TGI,[44],> 100 µM
same,TGI,[45],> 100 µM
same,TGI,[47],36.5 µM
same,TGI,[48],> 100 µM
same,TGI,[67],> 100 µM
same,TGI,[49],> 100 µM
same,TGI,[50],71.9 µM
same,TGI,[51],52.4 µM
same,TGI,[52],34.7 µM
same,TGI,[53],> 100 µM
O=C1CSC(c2cc3cc(Br)ccc3nc2Cl)N1c1ccc(Cl)cc1 (stereo not given),TGI,[1],> 100 µM
same,TGI,[2],> 100 µM
same,TGI,[3],> 100 µM
same,TGI,[4],> 100 µM
same,TGI,[54],61.5 µM
same,TGI,[5],> 100 µM
same,TGI,[6],97.6 µM
same,TGI,[7],41.2 µM
same,TGI,[55],> 100 µM
same,TGI,[11],> 100 µM
same,TGI,[12],41.7 µM
same,TGI,[13],77 µM
same,TGI,[14],88.8 µM
same,TGI,[15],55.7 µM
same,TGI,[17],> 100 µM
same,TGI,[18],> 100 µM
same,TGI,[56],> 100 µM
same,TGI,[19],> 100 µM
same,TGI,[20],> 100 µM
same,TGI,[21],> 100 µM
same,TGI,[22],47.6 µM
same,TGI,[57],33.7 µM
same,TGI,[25],84.9 µM
same,TGI,[27],75.8 µM
same,TGI,[58],67.6 µM
same,TGI,[59],> 100 µM
same,TGI,[60],49.5 µM
same,TGI,[61],> 100 µM
same,TGI,[28],47.9 µM
same,TGI,[62],> 100 µM
same,TGI,[29],> 100 µM
same,TGI,[30],42.1 µM
same,TGI,[31],57.3 µM
same,TGI,[63],75.3 µM
same,TGI,[32],41.3 µM
same,TGI,[33],81.5 µM
same,TGI,[34],> 100 µM
same,TGI,[35],> 100 µM
same,TGI,[64],> 100 µM
same,TGI,[65],> 100 µM
same,TGI,[36],60.9 µM
same,TGI,[37],> 100 µM
same,TGI,[38],37.6 µM
same,TGI,[39],37.8 µM
same,TGI,[40],32.2 µM
same,TGI,[41],> 100 µM
same,TGI,[42],37.9 µM
same,TGI,[66],> 100 µM
same,TGI,[43],48.7 µM
same,TGI,[44],> 100 µM
same,TGI,[45],> 100 µM
same,TGI,[47],44.8 µM
same,TGI,[48],> 100 µM
same,TGI,[67],> 100 µM
same,TGI,[49],70.7 µM
same,TGI,[51],42.5 µM
same,TGI,[52],22.6 µM
same,TGI,[53],> 100 µM
